Reference: PubChem BioAssay AID248 (DTP/NCI, 2004)
Values joined by “and” are separate entries in the source; they are usually repeats but may differ in a detail not shown here. Equal values may be shown once. Toxic doses and inconclusive results are not listed. Cut-off read from the data, not from the text of the source: active = T/C of 150% or more; inactive = T/C below 125%.

Tested on: L1210 leukemia ip in BDF1 mice, survival T/C
Assay: NCI In Vivo Anticancer Drug Screen. Data for tumor model L1210 Leukemia (intraperitoneal) in B6D2F1 (BDF1) mice
Conditions: endpoint: mean survival time, higher = longer survival
Outline: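 Each compound was tested against a transplantable tumor grown in mice. The endpoint was survival, with treated animals benchmarked against vehicle controls as a simple ratio.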

[1] = dose: 100.0 mg/kg/injection, schedule: Q01DX001 (ip), vehicle: saline
[2] = dose: 200.0 mg/kg/injection, schedule: Q01DX001 (ip), vehicle: saline
[3] = dose: 100.0 mg/kg/injection, schedule: Q01DX009 (ip), vehicle: saline with Tween-80
[4] = dose: 100.0 mg/kg/injection, schedule: Q04DX003 (ip), vehicle: saline with Tween-80
[5] = dose: 200.0 mg/kg/injection, schedule: Q01DX009 (ip), vehicle: saline with Tween-80
[6] = dose: 200.0 mg/kg/injection, schedule: Q04DX003 (ip), vehicle: saline with Tween-80
[7] = dose: 400.0 mg/kg/injection, schedule: Q01DX009 (ip), vehicle: saline with Tween-80
[8] = dose: 400.0 mg/kg/injection, schedule: Q04DX003 (ip), vehicle: saline with Tween-80
[9] = dose: 400.0 mg/kg/injection, schedule: Q01DX001 (ip), vehicle: saline
[10] = dose: 100.0 mg/kg/injection, schedule: Q01DX001 (ip), vehicle: Klucel (hydroxypropylcellulose) (HPC)
[11] = dose: 100.0 mg/kg/injection, schedule: Q04DX003 (ip), vehicle: Klucel (hydroxypropylcellulose) (HPC)
[12] = dose: 200.0 mg/kg/injection, schedule: Q01DX001 (ip), vehicle: Klucel (hydroxypropylcellulose) (HPC)
[13] = dose: 200.0 mg/kg/injection, schedule: Q04DX003 (ip), vehicle: Klucel (hydroxypropylcellulose) (HPC)
[14] = dose: 400.0 mg/kg/injection, schedule: Q01DX001 (ip), vehicle: Klucel (hydroxypropylcellulose) (HPC)
[15] = dose: 400.0 mg/kg/injection, schedule: Q04DX003 (ip), vehicle: Klucel (hydroxypropylcellulose) (HPC)
[16] = dose: 100.0 mg/kg/injection, schedule: Q04DX002 (ip), vehicle: saline with Tween-80
[17] = dose: 200.0 mg/kg/injection, schedule: Q04DX002 (ip), vehicle: saline with Tween-80
[18] = dose: 400.0 mg/kg/injection, schedule: Q04DX002 (ip), vehicle: saline with Tween-80

Measured: T/C

CCCCCNCCO
inactive: dose: 75.0 mg/kg/injection, schedule: Q01DX001 (ip), vehicle: saline 105 % of control | dose: 150.0 mg/kg/injection, schedule: Q01DX001 (ip), vehicle: saline 105 % of control | dose: 300.0 mg/kg/injection, schedule: Q01DX001 (ip), vehicle: saline 109 % of control

CC1CN(CCCCO)C(=O)NC1=O (centres undefined)
inactive: [1] 90 % of control | [2] 88 % of control

CC(=O)c1cccc(NC(=O)Nc2cccc(C(C)=O)c2)c1
inactive: dose: 2.5 mg/kg/injection, schedule: Q01DX009 (ip), vehicle: saline 101 % of control | dose: 5.0 mg/kg/injection, schedule: Q01DX009 (ip), vehicle: saline 95 % of control | dose: 10.0 mg/kg/injection, schedule: Q01DX009 (ip), vehicle: saline 98 % of control | dose: 20.0 mg/kg/injection, schedule: Q01DX009 (ip), vehicle: saline 93 % of control and 101 % of control | dose: 40.0 mg/kg/injection, schedule: Q01DX009 (ip), vehicle: saline 90 % of control | dose: 80.0 mg/kg/injection, schedule: Q01DX009 (ip), vehicle: saline 93 % of control | dose: 160.0 mg/kg/injection, schedule: Q01DX009 (ip), vehicle: saline 90 % of control | dose: 320.0 mg/kg/injection, schedule: Q01DX009 (ip), vehicle: saline 95 % of control

Cc1ccc(C(=O)c2ccccc2C(=O)O)cc1N
inactive: [3] 105 % of control | [4] 99 % of control | [5] 97 % of control | [6] 99 % of control | [7] 106 % of control | [8] 97 % of control

O=C1OCCC1[P+](c1ccccc1)(c1ccccc1)c1ccccc1 (centres undefined)
inactive: [1] 88 % of control

CC(N)C(=O)Nc1ccc(C(=O)O)c(O)c1 (centres undefined)
inactive: dose: 100.0 mg/kg/injection, schedule: Q01DX009 (ip), vehicle: saline 109 % of control | dose: 200.0 mg/kg/injection, schedule: Q01DX009 (ip), vehicle: saline 102 % of control | dose: 400.0 mg/kg/injection, schedule: Q01DX009 (ip), vehicle: saline 106 % of control

N#Cc1ccc(-c2nc3ncnc(N)c3[nH]2)cc1
inactive: dose: 100.0 mg/kg/injection, schedule: Q04DX002 (ip), vehicle: Klucel (hydroxypropylcellulose) (HPC) 97 % of control | dose: 200.0 mg/kg/injection, schedule: Q04DX002 (ip), vehicle: Klucel (hydroxypropylcellulose) (HPC) 105 % of control | dose: 400.0 mg/kg/injection, schedule: Q04DX002 (ip), vehicle: Klucel (hydroxypropylcellulose) (HPC) 101 % of control

O=C(CCl)N1CCN(C(=O)CCl)c2ccccc21
inactive: [1] 94 % of control | [2] 94 % of control | [9] 97 % of control

CCSSCC(N)C(=O)O (centres undefined)
inactive: dose: 100.0 mg/kg/injection, schedule: Q01DX001 (ip), vehicle: other 94 % of control | dose: 200.0 mg/kg/injection, schedule: Q01DX001 (ip), vehicle: other 103 % of control | dose: 400.0 mg/kg/injection, schedule: Q01DX001 (ip), vehicle: other 103 % of control

Cc1nccc2ccsc12
inactive: dose: 75.0 mg/kg/injection, schedule: Q01DX001 (ip), vehicle: other 105 % of control | dose: 150.0 mg/kg/injection, schedule: Q01DX001 (ip), vehicle: other 102 % of control

CSc1ccc(C(=O)C(CO)NC(C)=O)cc1 (centres undefined)
inactive: [1] 110 % of control | [2] 98 % of control | [9] 97 % of control

O=C(NC/C(Br)=C/Br)C(F)(F)F
inactive: [10] 113 % of control | [11] 90 % of control | [12] 105 % of control | [13] 88 % of control | [14] 105 % of control | [15] 90 % of control

CC1=CC(=O)c2[nH]ncc2C1=O
inactive: dose: 10.0 mg/kg/injection, schedule: Q01DX001 (ip), vehicle: water 93 % of control

CCOC(=O)CC(=O)c1ccc(OC)cc1
inactive: [10] 101 % of control | [12] 106 % of control | [14] 107 % of control

CCCCOCc1c(CO)cnc(C)c1O
inactive: dose: 25.0 mg/kg/injection, schedule: Q04DX002 (ip), vehicle: saline 99 % of control | dose: 50.0 mg/kg/injection, schedule: Q04DX002 (ip), vehicle: saline 96 % of control | dose: 100.0 mg/kg/injection, schedule: Q04DX002 (ip), vehicle: saline 93 % of control and 96 % of control

COc1c(OCC=C(C)C)cc2c(c1O)c(=O)c1ccccc1n2C
inactive: dose: 100.0 mg/kg/injection, schedule: Q01DX001 (ip), vehicle: carboxymethylcellulose (CMC) 100 % of control | dose: 200.0 mg/kg/injection, schedule: Q01DX001 (ip), vehicle: carboxymethylcellulose (CMC) 93 % of control | dose: 400.0 mg/kg/injection, schedule: Q01DX001 (ip), vehicle: carboxymethylcellulose (CMC) 98 % of control

CSC1=Nc2c(C)nn(C)c2C(c2ccccc2)S1 (centres undefined)
inactive: [16] 100 % of control and 112 % of control | [4] 97 % of control and 101 % of control | [17] 104 % of control and 89 % of control | [6] 96 % of control and 100 % of control | [18] 94 % of control and 104 % of control | [8] 96 % of control and 100 % of control

Cc1ccc(NC(=O)Nc2ccc(Cl)c(Cl)c2)c(C)c1
inactive: dose: 100.0 mg/kg/injection, schedule: Q01DX009 (ip), vehicle: Klucel (hydroxypropylcellulose) (HPC) 90 % of control | [11] 89 % of control | dose: 200.0 mg/kg/injection, schedule: Q01DX009 (ip), vehicle: Klucel (hydroxypropylcellulose) (HPC) 90 % of control | [13] 89 % of control | [15] 89 % of control

COc1cc(Cc2nccc3ccccc23)cc([N+](=O)[O-])c1OC
inactive: dose: 50.0 mg/kg/injection, schedule: Q04DX002 (ip), vehicle: saline with Tween-80 97 % of control | [16] 93 % of control | [17] 90 % of control | [18] 87 % of control

C[CH2][Sn](/[CH]=C\CO)([CH2]C)[CH2]C
inactive: dose: 0.78 mg/kg/injection, schedule: Q01DX009 (ip), vehicle: saline 86 % of control | dose: 1.56 mg/kg/injection, schedule: Q01DX009 (ip), vehicle: saline 104 % of control | dose: 3.12 mg/kg/injection, schedule: Q01DX009 (ip), vehicle: saline 90 % of control

NC(=O)C1CCC1C(N)=O (centres undefined)
inactive: [3] 108 % of control | [5] 101 % of control | [7] 103 % of control

O=C(CCl)Nc1cc(Cl)ccc1N1CCCC1
inactive: dose: 12.5 mg/kg/injection, schedule: Q01DX009 (ip), vehicle: acetone 100 % of control | dose: 25.0 mg/kg/injection, schedule: Q01DX009 (ip), vehicle: acetone 90 % of control | dose: 50.0 mg/kg/injection, schedule: Q01DX009 (ip), vehicle: acetone 90 % of control

Cn1c(=O)n2n(c1=O)C1CCC2C2C=CC21 (centres undefined)
inactive: dose: 6.25 mg/kg/injection, schedule: Q01DX001 (ip), vehicle: saline 93 % of control | dose: 12.5 mg/kg/injection, schedule: Q01DX001 (ip), vehicle: saline 94 % of control
